Assay results from US20240307349A1, “METHODS FOR THE PREPARATION AND DOSE REGIMENS FOR USE OF SSTR4 AGONISTS AND SALTS THEREOF” (priority 2023, published 2024).

Legend:
Type in all cases: in vivo, human
[1] = system: healthy subjects; assay: Phase 1 study LXBB (SAD/MAD), safety and tolerability in healthy subjects
Description: (§1) The safety and tolerability of Example 5, were initially based on the 2 completed Phase 1 studies (LXBB and LXBA) and later confirmed with 3 completed Phase 2 studies (OA03, BP03, and NP03, as disclosed below).
Phase 1 Study LXBB was a first-in-human single-ascending dose/multiple-ascending dose (SAD/MAD) study in 89 healthy subjects (TABLE 1). […] One subject was discontinued due to the nondrug-related AE of pyrexia. In the SAD study, 1 subject each reported AEs of temporomandibular joint syndrome and tension headache. In the food effect study, 1 subject reported dry eye and nausea. In the Younger Group 10-day multiple-dose exposure study, the most commonly reported AEs were headache (2 subjects), diarrhea (2 subjects), nausea, rhinitis, and orthostatic hypotension (1 subject each). In the Elderly Group 10-day multiple-dose exposure study, the most commonly reported AEs were headache (5 subjects), pain in extremity (1 subject), vessel puncture site bruise (1 subject), dizziness (1 subject), and orthostatic hypotension (1 subject).
The mean PR interval increase from baseline was 13 msec in subjects receiving single 400-mg dose (SAD); the highest PR interval change from baseline in an individual subject was 45 msec (after the 300-mg dose in MAD).

[2] = system: healthy subjects; assay: Phase 1 study LXBA, safety and tolerability in healthy subjects
Description: as §1
Study LXBA is a completed study and consisted of 2 parts, Part A and Part B (TABLE 1). Part A of the study had 18 healthy subjects in 3 dosing cohorts, and Part B had 9 healthy subjects exposed to Example 5. […] In Part A, all treatment-emergent adverse events (TEAEs) were mild in severity except for 1 moderate event of presyncope. Constipation and insomnia (2 events each) were the only TEAEs reported in >1 subject. In Part B, the reported TEAEs were dysgeusia, nausea, and vomiting, which were all mild in severity.

[3] = system: participants with DPNP; assay: H0P-MC-NP03 Phase 2 placebo-controlled trial, diabetic peripheral neuropathic pain
Description: The purpose of this study was to test whether Example 5 is efficacious in relieving diabetic peripheral neuropathic pain (DPNP). Data was collected to assess the safety and tolerability of Example 5 in this study population and previously discussed above. Pharmacokinetic properties and pharmacodynamic effects were also explored. The totality of data from this proof-of-concept study will assess the benefits and risks associated with Example 5.
NP03 was an 8-week, Phase 2, randomized, double-blind, placebo-controlled study that compared Example 5 versus placebo in participants with DPNP.
Participants received either Example 5 or placebo. Based on tolerability, participants received up to a maximum of 3 capsules orally (each capsule was 200 mg), twice daily, approximately every 12 hours, for a total dose of 600 mg.
The primary clinical question of interest was, “What is the treatment difference between Example 5 and placebo assessed using mean change from baseline to endpoint (Week 8) for average pain intensity (API) as measured by the Numeric Rating Scale (NRS) in participants with diabetic peripheral neuropathic pain (DPNP) regardless of initiation of rescue medication or other allowed concomitant medication and assuming that they would have continued initially randomized treatment condition?”
Participants were randomly assigned 2:1 to Example 5 or placebo. Based on tolerability, participants could take up to a maximum of 3 capsules orally (each capsule was 200 mg), twice daily (BID), approximately every 12 hours, for a total dose of 600 mg BID.
The protocol allowed changes to the dose for individual participants, but the maximum daily dose should not exceed 600 mg BID. The starting dose level was 200 mg BID. Decisions to change the dose level were made by the investigator in discussion with the participants based on the adverse events (AEs) reported for tolerability. The medical monitor was contacted as needed. All changes in dose level had to occur before the end of Visit 4 (Study Week 2).
NP03 was an 8-week, multicenter, randomized, DB, placebo-controlled, Phase 2, proof-of-concept study to evaluate Example 5 for the treatment of DPNP. Participants were randomly assigned 2:1 to Example 5 or placebo. A total of 68 participants enrolled into the NP03 ISA, with 45 participants randomly assigned to Example 5, and 23 participants assigned to placebo. The safety population consisted of the 68 participants who received at least 1 dose of study intervention and included all participants in the enrolled population. Using a titration scheme, Example 5 was administered orally as a maximum of 3 capsule (200 mg per capsule) for a total dose of 600 mg approximately every 12 hours, with or without food. Fifty percent of participants completed the BD treatment phase.

Cc1cccnc1OCC(C)(C)NC(=O)[C@H]1[C@@H]2CNC[C@@H]21.O=C(O)C(O)C(O)C(=O)O [Example 5, (1R,5S,6r)-N-(2-Methyl-1-((3-methylpyridin-2-yl)oxy)propan-2-yl)-3-azabicyclo[3.1.0]hexane-6-carboxamide L-tartrate sesquihydrate]
deaths or serious adverse events (SAEs) ([1]; SAD and MAD study): No deaths or serious adverse events (SAEs) were reported | severity of adverse events (AEs) ([1]; SAD and MAD study): mild or moderate in severity | tolerability ([1]; SAD and MAD study, 89 healthy subjects): well tolerated | highest PR interval change from baseline in an individual subject ([1]; after the 300-mg dose in MAD): 45 ms | changes in chemistry, hematology, or coagulation parameters ([1]; human, in vivo): no clinically significant changes | mean PR interval increase from baseline ([1]; single 400-mg dose (SAD)): 13 ms | tolerability ([2]; Part A 18 and Part B 9 healthy subjects): generally well tolerated | deaths, SAEs, or discontinuations due to AEs ([2]; human, in vivo): No deaths, SAEs, or discontinuations due to AEs have been reported | severity of AEs ([2]; human, in vivo): majority of AEs were of mild severity | Mean Change of Average Pain Intensity, Weekly Average of NRS ([3]; 400 mg BID, week 1, n = 8): −0.74 | Observed Mean of Average Pain Intensity, Weekly Average of NRS ([3]; 400 mg BID, week 1, n = 8): 5.76 | Mean Change of Average Pain Intensity, Weekly Average of NRS ([3]; 400 mg BID, week 2, n = 9): −1.62 | Observed Mean of Average Pain Intensity, Weekly Average of NRS ([3]; 400 mg BID, week 2, n = 9): 4.90 | Mean Change of Average Pain Intensity, Weekly Average of NRS ([3]; 400 mg BID, week 3, n = 9): −2.12 | Observed Mean of Average Pain Intensity, Weekly Average of NRS ([3]; 400 mg BID, week 3, n = 9): 4.41 | Mean Change of Average Pain Intensity, Weekly Average of NRS ([3]; 400 mg BID, week 4, n = 6): −2.05 | Observed Mean of Average Pain Intensity, Weekly Average of NRS ([3]; 400 mg BID, week 4, n = 6): 5.46 | Mean Change of Average Pain Intensity, Weekly Average of NRS ([3]; 400 mg BID, week 5, n = 4): −3.37 | Observed Mean of Average Pain Intensity, Weekly Average of NRS ([3]; 400 mg BID, week 5, n = 4): 4.66 | Mean Change of Average Pain Intensity, Weekly Average of NRS ([3]; 400 mg BID, week 6, n = 5): −2.72 | Observed Mean of Average Pain Intensity, Weekly Average of NRS ([3]; 400 mg BID, week 6, n = 5): 4.15 | Mean Change of Average Pain Intensity, Weekly Average of NRS ([3]; 400 mg BID, week 7, n = 4): −3.34 | Observed Mean of Average Pain Intensity, Weekly Average of NRS ([3]; 400 mg BID, week 7, n = 4): 2.96 | Mean Change of Average Pain Intensity, Weekly Average of NRS ([3]; 400 mg BID, week 8, n = 4): −3.39 | Observed Mean of Average Pain Intensity, Weekly Average of NRS ([3]; 400 mg BID, week 8, n = 4): 4.17 | Mean Change of Average Pain Intensity, Weekly Average of NRS ([3]; 600 mg BID, week 1, n = 30): −0.72 | Observed Mean of Average Pain Intensity, Weekly Average of NRS ([3]; 600 mg BID, week 1, n = 30): 5.77 | Mean Change of Average Pain Intensity, Weekly Average of NRS ([3]; 600 mg BID, week 2, n = 29): −1.59 | Observed Mean of Average Pain Intensity, Weekly Average of NRS ([3]; 600 mg BID, week 2, n = 29): 4.91 | Mean Change of Average Pain Intensity, Weekly Average of NRS ([3]; 600 mg BID, week 3, n = 23): −2.09 | Observed Mean of Average Pain Intensity, Weekly Average of NRS ([3]; 600 mg BID, week 3, n = 23): 4.82 | Mean Change of Average Pain Intensity, Weekly Average of NRS ([3]; 600 mg BID, week 4, n = 24): −2.18 | Observed Mean of Average Pain Intensity, Weekly Average of NRS ([3]; 600 mg BID, week 4, n = 24): 4.64 | Mean Change of Average Pain Intensity, Weekly Average of NRS ([3]; 600 mg BID, week 5, n = 21): −2.43 | Observed Mean of Average Pain Intensity, Weekly Average of NRS ([3]; 600 mg BID, week 5, n = 21): 4.18 | Mean Change of Average Pain Intensity, Weekly Average of NRS ([3]; 600 mg BID, week 6, n = 19): −2.37 | Observed Mean of Average Pain Intensity, Weekly Average of NRS ([3]; 600 mg BID, week 6, n = 19): 4.26 | Mean Change of Average Pain Intensity, Weekly Average of NRS ([3]; 600 mg BID, week 7, n = 17): −2.64 | Observed Mean of Average Pain Intensity, Weekly Average of NRS ([3]; 600 mg BID, week 7, n = 17): 3.78 | Mean Change of Average Pain Intensity, Weekly Average of NRS ([3]; 600 mg BID, week 8, n = 16): −2.74 | Observed Mean of Average Pain Intensity, Weekly Average of NRS ([3]; 600 mg BID, week 8, n = 16): 3.79 | Mean change from baseline assessment to endpoint for API as measured using the NRS ([3]; 8 weeks after initial treatment administration, up to 600 mg Q12H, n = 45): −2.75 | most secondary endpoints compared with placebo ([3]; DPNP): greater numerical improvements | decrease in API measured by NRS, 400 mg dosing regimen compared with the 600 mg dosing regimen ([3]; Week 8): greater decrease in API measured by NRS in the 400 mg dosing regimen | primary objective: posterior probability for change from baseline in API versus placebo ([3]; Week 8, DPNP): met the prespecified threshold | Mean change from baseline assessment to endpoint for worst pain intensity as measured by weekly NRS ([3]; Week 8, n = 45): −3.06 | Mean change from baseline assessment to endpoint on the VAS for pain ([3]; Week 8, n = 45): −30.20 | Mean change from baseline to endpoint for the BPI-SFM ([3]; Week 8, n = 45): −2.31 | Overall improvement to endpoint as measured by PGIC ([3]; Week 8, n = 45): 2.3
